Where two headings read alike, the source gives them in different places.
Legend:
[1] = target: T1, human A2B adenosine receptor (Homo sapiens, UniProt P29275); assay: [3H]DPCPX binding to human A2B receptors expressed in HEK293 cells; set-up: host or cells: HEK 293 cells (membranes)
T1 sequence (P29275 1-332): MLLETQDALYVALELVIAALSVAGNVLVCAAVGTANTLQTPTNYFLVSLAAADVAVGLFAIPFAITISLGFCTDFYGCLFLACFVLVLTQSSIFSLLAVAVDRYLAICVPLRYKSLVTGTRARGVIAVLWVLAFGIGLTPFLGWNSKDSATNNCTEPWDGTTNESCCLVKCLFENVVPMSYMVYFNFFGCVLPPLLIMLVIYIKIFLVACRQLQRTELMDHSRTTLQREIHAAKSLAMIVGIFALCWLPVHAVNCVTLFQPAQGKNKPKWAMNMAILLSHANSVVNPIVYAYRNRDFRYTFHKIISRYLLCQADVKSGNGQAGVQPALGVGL
Procedure, shortened: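 Membranes (20 μg protein) from HEK293 cells expressing recombinant human A2B receptor were incubated 60 min at 25° C with 40 nM [3H]-DPCPX and 6–8 compound concentrations. Buffer was Tris-HCl with MgCl2, 1 mM EDTA, 0.1 mM benzamidine and 2 IU/ml adenosine deaminase, pH 7.4. Filter-bound radioactivity gave the inhibitory binding constant.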

[2] = target: T2, human A1 adenosine receptor (Homo sapiens, UniProt P30542); assay: [3H]DPCPX binding to human A1 receptors expressed in CHO cells; conditions: geometric mean (95% confidence interval); >1000 = no appreciable binding
T2 construct: expressed in transfected cells; host or cells: CHO cells (membranes)
T2 sequence (P30542 1-326): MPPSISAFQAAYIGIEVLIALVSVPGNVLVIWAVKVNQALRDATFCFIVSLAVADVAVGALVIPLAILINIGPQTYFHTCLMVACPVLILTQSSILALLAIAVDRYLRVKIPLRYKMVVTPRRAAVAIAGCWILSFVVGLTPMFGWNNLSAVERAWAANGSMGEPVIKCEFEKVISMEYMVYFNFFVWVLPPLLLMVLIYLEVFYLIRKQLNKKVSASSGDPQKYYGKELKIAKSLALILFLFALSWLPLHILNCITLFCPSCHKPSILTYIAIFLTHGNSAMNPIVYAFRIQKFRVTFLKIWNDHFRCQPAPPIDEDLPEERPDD

[3] = target: T3, human A3 adenosine receptor (Homo sapiens, UniProt P0DMS8); assay: [3H]MRE3008F20 binding to human A3 receptors expressed in CHO cells
T3 construct: expressed in transfected cells; host or cells: CHO cells (membranes)
T3 sequence (P0DMS8 1-318): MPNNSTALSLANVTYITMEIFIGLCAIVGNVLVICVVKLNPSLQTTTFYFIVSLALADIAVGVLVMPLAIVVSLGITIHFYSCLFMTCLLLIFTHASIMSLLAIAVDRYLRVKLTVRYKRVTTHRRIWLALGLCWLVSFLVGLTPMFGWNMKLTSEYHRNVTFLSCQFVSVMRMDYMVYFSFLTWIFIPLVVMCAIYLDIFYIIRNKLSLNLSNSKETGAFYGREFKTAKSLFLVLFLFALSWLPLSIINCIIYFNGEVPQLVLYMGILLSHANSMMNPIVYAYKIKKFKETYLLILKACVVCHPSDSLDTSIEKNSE
Procedure, shortened: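 CHO cell membranes (50 μg protein) competed against 1 nM [3H]-MRE3008-F20 in 50 mM Tris HCl, MgCl2, pH 7.4, with 6–8 ligand concentrations in duplicate, 120 minutes at 4° C. Filter-bound radioactivity counted by scintillation; inhibitory binding constants derived.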

[4] = target: T1, human A2B adenosine receptor; assay: Cyclic AMP assay, antagonism of NECA-stimulated cAMP in CHO cells transfected with human A2B receptors; format: cell-based
Experimental: Measurement of cyclic AMP (CAMP) levels in CHO cells transfected with human A2B adenosine receptors was performed in the following manner. CHO cells transfected with human A2B adenosine receptors were washed with phosphate-buffered saline, diluted tripsine and centrifuged for 10 minutes at 200 g.
The reaction was terminated by the addition of cold 6% thrichloroacetic acid (TCA). The TCA suspension was centrifuged at 2000 g for 10 minutes at 4° C. and the supernatant was extracted four times with water saturated diethyl ether. The final aqueous, solution was tested for cAMP levels by a competition protein binding assay. Samples of cAMP standard (0–10 pmoles) were added to each test tube containing the incubation buffer (trizma base 0.1 M, aminophylline 8.0 mM, 2-mercaptoethanol 6.0 mM, pH 7.4) and [H^3]-cAMP in a total volume of 0.5 ml. The binding protein previously prepared from beef adrenals, was added to the samples previously incubated at 4° C. for 150 minutes, and after the addition of charcoal were centrifuged at 2000 g for 10 minutes. The clear supernatant was counted in a Beckman scintillation counter.
Finally, to evaluate the regulation of adenylyl cyclase activity and to test whether the binding parameters correlated with the functional response, the IC50 values were obtained for inhibition of cAMP production by antagonists. In particular, we evaluated the capability of the several compounds to inhibit NECA (100 nM)-stimulated cyclic AMP accumulation.

[5] = target: T4, human A2A adenosine receptor (Homo sapiens, UniProt P29274); assay: [3H]ZM241385 binding to human A2A receptors expressed in CHO cells
T4 construct: expressed in transfected cells; host or cells: CHO cells (membranes)
Procedure, shortened: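 Membranes from adherent CHO cells, resuspended in 50 mM Tris HCl with 10 mM MgCl2, pH 7.4. The inhibitory binding constant is reported.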

[6] = Table 2, geometric mean (95% confidence limits), at least three experiments in duplicate, read-out: [3H]-DPCPX binding to human A2B receptors in HEK 293 cells Ki
[7] = geometric mean (95% confidence interval), >1000 = no appreciable binding, read-out: Ki, [3H]DPCPX binding to human A2B receptors expressed in HEK293 cells
[8] = inhibition of NECA (100 nM)-stimulated cAMP, geometric mean (95% confidence limits)
[9] = read-out: Ki, [3H]ZM241385 binding to human A2A receptors expressed in CHO cells

T4 sequence (P29274 whole entry): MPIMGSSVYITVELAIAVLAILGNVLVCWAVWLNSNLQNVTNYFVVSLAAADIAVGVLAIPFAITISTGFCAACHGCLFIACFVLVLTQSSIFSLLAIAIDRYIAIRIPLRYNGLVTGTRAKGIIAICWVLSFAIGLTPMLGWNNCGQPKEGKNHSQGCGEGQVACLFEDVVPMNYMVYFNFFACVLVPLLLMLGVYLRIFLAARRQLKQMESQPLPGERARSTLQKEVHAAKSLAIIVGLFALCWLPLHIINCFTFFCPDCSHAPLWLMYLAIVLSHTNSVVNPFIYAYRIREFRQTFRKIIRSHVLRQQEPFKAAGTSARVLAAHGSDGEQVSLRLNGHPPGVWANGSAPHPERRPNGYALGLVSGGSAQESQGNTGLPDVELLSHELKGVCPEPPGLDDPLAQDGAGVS

SMILES | Ki [1, 6] | Ki [1, 7] | Ki [2] | Ki [3] | IC50 [4, 8] | Ki [5, 9] | IC50 [4] | Ki [5]
CCCn1c(=O)c2[nH]c(-c3cc(NC(=O)Cc4ccc(OCc5ccccc5C(F)(F)F)cc4)nn3C)nc2n(CCC)c1=O [AS29, N-[5-(2,6-dioxo-1,3-dipropyl-2,3,6,9-tetrahydro-1H-purin-8-yl)-1-methyl-1H-pyrazol-3-yl]-2-(4-{[2-(trifluoromethyl)benzyl]oxy}phenyl)acetamide] | 13 nM | 13 nM | 56 nM | > 1000 nM | 93 nM | > 1000 nM |  | 
CCCn1c(=O)c2[nH]c(-c3cc(NC(=O)Nc4cccc(Cl)c4)nn3C)nc2n(CCC)c1=O [AS54, N-(3-chlorophenyl)-N'-[5-(2,6-dioxo-1,3-dipropyl-2,3,6,7-tetrahydro-1H-purin-8-yl)-1-methyl-1H-pyrazol-3-yl]urea] | 39 nM | 39 nM | 448 nM | > 1000 nM |  | > 1000 nM | 136 nM | 
CCCn1c(=O)c2[nH]c(-c3cc(NC(=O)Cc4ccc5c(c4)OCO5)nn3C)nc2n(CCC)c1=O [AS57, 2-(1,3-benzodioxol-5-yl)-N-[5-(2,6-dioxo-1,3-dipropyl-2,3,6,9-tetrahydro-1H-purin-8-yl)-1-methyl-1H-pyrazol-3-yl]acetamide] | 18 nM | 18 nM | 566 nM | > 1000 nM | 95 nM |  |  | 1250 nM
CCCn1c(=O)c2[nH]c(-c3cc(OCC(=O)Nc4ccc(Br)cc4)nn3C)nc2n(CCC)c1=O [AS65, 2-{[5-(2,6-dioxo-1,3-dipropyl-2,3,6,9-tetrahydro-1H-purin-8-yl)-1-methyl-1H-pyrazol-3-yl]oxy}-N-(4-bromophenyl)acetamide] | 20 nM | 20 nM | 150 nM | > 1000 nM | 108 nM | > 1000 nM |  | 
